Measured values as given in patent US4681893A, “Trans-6-[2-(3- or 4-carboxamido-substituted pyrrol-1-yl)alkyl]-4-hydroxypyran-2-one inhibitors of cholesterol synthesis” (Warner-Lambert Company, priority 1986, dated 1987).

Key:
[1] = test system: biosynthesis of cholesterol (sterol synthesis) in rat liver homogenate; experiment: CSI screen: inhibition of sterol synthesis (incorporation of cholesterol-14C-acetate into nonsaponifiable lipid) by rat liver homogenate; type: biochemical; details: one-hour period, cholestyramine-fed rats, read-out: IC50 (Micromoles/liter) CSI
Method: The ability of compounds of the present invention to inhibit the biosynthesis of cholesterol was measured by two methods. A first method (designated CSI screen) utilized the procedure described by R. E. Dugan et al., Archiv. Biochem. Biophys., (1972), 152, 21-27. In this method, the level of HMG-CoA enzyme activity in standard laboratory rats is increased by feeding the rats a chow diet containing 5% cholestyramine for four days, after which the rats are sacrificed.
The rat livers are homogenized, and the incorporation of cholesterol-^14 C-acetate into nonsaponifiable lipid by the rat liver homogenate is measured. The micromolar concentration of compound required for 50% inhibition of sterol synthesis over a one-hour period is measured, and expressed as an IC50 value.

HMG-CoA reductase = target: T1, HMG-CoA reductase (Rattus norvegicus, UniProt P51639); experiment: COR screen: conversion of 14C-HMG-CoA to 14C-mevalonate by a purified HMG-CoA reductase preparation; type: biochemical; details: purified enzyme preparation of HMG-CoA reductase, read-out: IC50 (Micromoles/liter) COR
T1 sequence (P51639 1-887): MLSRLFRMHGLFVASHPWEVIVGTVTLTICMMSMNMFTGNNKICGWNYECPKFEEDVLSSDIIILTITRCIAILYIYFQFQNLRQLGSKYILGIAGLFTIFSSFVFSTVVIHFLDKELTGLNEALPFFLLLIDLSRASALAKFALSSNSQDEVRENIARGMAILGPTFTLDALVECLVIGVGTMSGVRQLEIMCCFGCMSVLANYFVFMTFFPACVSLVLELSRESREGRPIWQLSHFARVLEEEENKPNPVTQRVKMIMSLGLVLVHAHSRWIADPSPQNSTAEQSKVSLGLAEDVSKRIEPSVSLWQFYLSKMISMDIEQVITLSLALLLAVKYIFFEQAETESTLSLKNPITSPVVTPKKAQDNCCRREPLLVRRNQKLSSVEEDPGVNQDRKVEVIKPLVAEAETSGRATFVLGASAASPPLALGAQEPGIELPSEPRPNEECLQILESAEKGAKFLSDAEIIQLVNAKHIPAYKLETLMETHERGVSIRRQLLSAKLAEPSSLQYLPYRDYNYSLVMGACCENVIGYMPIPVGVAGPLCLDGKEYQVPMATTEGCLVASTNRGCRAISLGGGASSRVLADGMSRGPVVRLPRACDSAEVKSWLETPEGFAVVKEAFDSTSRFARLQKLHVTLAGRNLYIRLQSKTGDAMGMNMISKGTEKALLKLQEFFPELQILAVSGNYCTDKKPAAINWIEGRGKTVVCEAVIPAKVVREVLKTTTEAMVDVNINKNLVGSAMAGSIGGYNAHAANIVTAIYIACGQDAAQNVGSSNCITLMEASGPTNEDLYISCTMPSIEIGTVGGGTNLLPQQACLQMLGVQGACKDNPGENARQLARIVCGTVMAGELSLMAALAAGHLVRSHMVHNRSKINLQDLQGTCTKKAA
Method: A second method (designated COR screen) employed the procedure detailed by T. Kita, et al., J. Clin. Invest., (1980), 66: 1094-1100. In this method, the amount of ^14 C-HMG-CoA converted to ^14 C-mevalonate in the presence of a purified enzyme preparation of HMG-CoA reductase was measured. The micromolar concentration of compound required for 50% inhibition of cholesterol synthesis was measured and recorded as an IC50 value.

## CC[C@H](C)C(=O)O[C@H]1CCC=C2C=C[C@H](C)[C@H](CC[C@@H]3C[C@@H](O)CC(=O)O3)[C@H]21 [Compactin, reference compound]
[1]
  IC50: 0.026 µM

## O=C1C[C@@H](O)C[C@H](CCn2c(-c3ccc(F)cc3)c(C(=O)Nc3ccccc3)c(-c3ccccc3)c2C(F)(F)F)O1 (relative stereo) [Compound 2, trans-2-(4-fluorophenyl)-N,4-diphenyl-1-[2-(tetrahydro-4-hydroxy-6-oxo-2H-pyran-2-yl)ethyl]-5-(trifluoromethyl)-pyrrole-3-carboxamide]
[1]
  IC50: 0.4 µM
HMG-CoA reductase
  IC50: 0.4 µM

## O=C1C[C@@H](O)C[C@H](CCn2c(-c3ccc(F)cc3)c(-c3ccccc3)c(C(=O)Nc3ccccc3)c2C(F)(F)F)O1 (relative stereo) [Compound 3, trans-5-(4-fluorophenyl)-N,4-diphenyl-1-[2-(tetrahydro-4-hydroxy-6-oxo-2H-pyran-2-yl)ethyl]-2-(trifluoromethyl)-pyrrole-3-carboxamide]
[1]
  IC50: 0.018 µM
HMG-CoA reductase
  IC50: 0.02 µM

## CC(C)c1c(C(=O)Nc2ccccc2)c(-c2ccccc2)c(-c2ccc(F)cc2)n1CC[C@H]1C[C@H](O)CC(=O)O1 (relative stereo) [Compound 1, trans-5-(4-fluorophenyl)-2-(1-methylethyl)-N,4-diphenyl-1-[2-(tetrahydro-4-hydroxy-6-oxo-2H-pyran-2-yl)ethyl]-1H-pyrrole-3-carboxamide]
[1]
  IC50: 0.035 µM
HMG-CoA reductase
  IC50: 0.05 µM
